Laboratory results as given in US20220281848A1, “PYRAZOLE-SUBSTITUTED PYRROLIDINONES AS HERBICIDES” (FMC Corporation, priority 2019, published 2022).

System: plants
Assay: Test D pre-emergence, other plants of Tables D1 and D3
Format: in vivo
Conditions: pre-emergence, 100=total damage, 0=no damage
Summary of the method: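 Damage was rated visually from 0 (none) to 100 (total), at 20 DAA for pre-emergence and 15 d for post-emergence. Plants grew from safener-treated seed in a glasshouse at 24/18° C. or 20/16° C. day/night, 65% humidity, watered twice daily.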

`CCn1nc([C@H]2CN(C)C(=O)[C@@H]2C(=O)Nc2cccc(F)c2F)c2ccc(F)cc21` [Compound 4] was tested, and the “damage to plant, BEAVA” value (rate 15, 20 DAA) was 0, the “damage to plant, BROTE” value (rate 15, 20 DAA) was 0 and the “damage to plant, BRSNN” value (rate 15, 20 DAA) was 0. For the same compound, the “damage to plant, CHEAL” value (rate 15, 20 DAA) was 0, the “damage to plant, GALAP” value (rate 15, 20 DAA) was 0 and the “damage to plant, HORVW” value (rate 15, 20 DAA) was 0. For the same compound, the “damage to plant, KCHSC” value (rate 15, 20 DAA) was 0, the “damage to plant, LOLPE” value (rate 15, 20 DAA) was 0 and the “damage to plant, POAAN” value (rate 15, 20 DAA) was 0. For the same compound, the “damage to plant, POLCO” value (rate 15, 20 DAA) was 0, the “damage to plant, SINAR” value (rate 15, 20 DAA) was 0 and the “damage to plant, STEME” value (rate 15, 20 DAA) was 0. For the same compound, the “damage to plant, VERPE” value (rate 15, 20 DAA) was 0, the “damage to plant, ALOMY” value (rate 30, 20 DAA) was 0 and the “damage to plant, AVEFA” value (rate 30, 20 DAA) was 0. For the same compound, the “damage to plant, BEAVA” value (rate 30, 20 DAA) was 0, the “damage to plant, BROTE” value (rate 30, 20 DAA) was 0 and the “damage to plant, BRSNN” value (rate 30, 20 DAA) was 0. The “damage to plant, CHEAL” value (rate 30, 20 DAA) was 0, the “damage to plant, GALAP” value (rate 30, 20 DAA) was 0 and the “damage to plant, HORVW” value (rate 30, 20 DAA) was 0. The “damage to plant, KCHSC” value (rate 30, 20 DAA) was 0, the “damage to plant, LOLPE” value (rate 30, 20 DAA) was 0 and the “damage to plant, POAAN” value (rate 30, 20 DAA) was 0. The “damage to plant, POLCO” value (rate 30, 20 DAA) was 0, the “damage to plant, SINAR” value (rate 30, 20 DAA) was 0 and the “damage to plant, STEME” value (rate 30, 20 DAA) was 0. For the same compound, the “damage to plant, VERPE” value (rate 30, 20 DAA) was 0, the “damage to plant, ALOMY” value (rate 60, 20 DAA) was 0 and the “damage to plant, AVEFA” value (rate 60, 20 DAA) was 0. The “damage to plant, BEAVA” value (rate 60, 20 DAA) was 0, the “damage to plant, BROTE” value (rate 60, 20 DAA) was 0 and the “damage to plant, BRSNN” value (rate 60, 20 DAA) was 0. The “damage to plant, CHEAL” value (rate 60, 20 DAA) was 0, the “damage to plant, GALAP” value (rate 60, 20 DAA) was 0 and the “damage to plant, HORVW” value (rate 60, 20 DAA) was 0. The “damage to plant, KCHSC” value (rate 60, 20 DAA) was 0, the “damage to plant, LOLPE” value (rate 60, 20 DAA) was 0 and the “damage to plant, POAAN” value (rate 60, 20 DAA) was 40. The “damage to plant, POLCO” value (rate 60, 20 DAA) was 0, the “damage to plant, SINAR” value (rate 60, 20 DAA) was 0 and the “damage to plant, STEME” value (rate 60, 20 DAA) was 0. The “damage to plant, VERPE” value (rate 60, 20 DAA) was 0, the “damage to plant, ALOMY” value (rate 130, 20 DAA) was 0 and the “damage to plant, AVEFA” value (rate 130, 20 DAA) was 0. For the same compound, the “damage to plant, BEAVA” value (rate 130, 20 DAA) was 0, the “damage to plant, BROTE” value (rate 130, 20 DAA) was 0 and the “damage to plant, BRSNN” value (rate 130, 20 DAA) was 0. For the same compound, the “damage to plant, CHEAL” value (rate 130, 20 DAA) was 0, the “damage to plant, GALAP” value (rate 130, 20 DAA) was 0 and the “damage to plant, HORVW” value (rate 130, 20 DAA) was 0. The “damage to plant, KCHSC” value (rate 130, 20 DAA) was 0, the “damage to plant, LOLPE” value (rate 130, 20 DAA) was 0 and the “damage to plant, POAAN” value (rate 130, 20 DAA) was 50. The “damage to plant, POLCO” value (rate 130, 20 DAA) was 0, the “damage to plant, SINAR” value (rate 130, 20 DAA) was 0 and the “damage to plant, STEME” value (rate 130, 20 DAA) was 0. For the same compound, the “damage to plant, VERPE” value (rate 130, 20 DAA) was 0, the “damage to plant, ALOMY” value (rate 250, 20 DAA) was 0 and the “damage to plant, AVEFA” value (rate 250, 20 DAA) was 0. For the same compound, the “damage to plant, BEAVA” value (rate 250, 20 DAA) was 0, the “damage to plant, BROTE” value (rate 250, 20 DAA) was 0 and the “damage to plant, BRSNN” value (rate 250, 20 DAA) was 0. The “damage to plant, CHEAL” value (rate 250, 20 DAA) was 0, the “damage to plant, GALAP” value (rate 250, 20 DAA) was 0 and the “damage to plant, HORVW” value (rate 250, 20 DAA) was 0. The “damage to plant, KCHSC” value (rate 250, 20 DAA) was 0, the “damage to plant, LOLPE” value (rate 250, 20 DAA) was 0 and the “damage to plant, POAAN” value (rate 250, 20 DAA) was 80. The “damage to plant, POLCO” value (rate 250, 20 DAA) was 0, the “damage to plant, SINAR” value (rate 250, 20 DAA) was 0 and the “damage to plant, STEME” value (rate 250, 20 DAA) was 0. The “damage to plant, VERPE” value (rate 250, 20 DAA) was 0, the “damage to plant, ALOMY” value (rate 500, 20 DAA) was 40 and the “damage to plant, AVEFA” value (rate 500, 20 DAA) was 10. The “damage to plant, BEAVA” value (rate 500, 20 DAA) was 0, the “damage to plant, BROTE” value (rate 500, 20 DAA) was 10 and the “damage to plant, BRSNN” value (rate 500, 20 DAA) was 10. For the same compound, the “damage to plant, CHEAL” value (rate 500, 20 DAA) was 0, the “damage to plant, GALAP” value (rate 500, 20 DAA) was 0 and the “damage to plant, HORVW” value (rate 500, 20 DAA) was 20. For the same compound, the “damage to plant, KCHSC” value (rate 500, 20 DAA) was 0, the “damage to plant, LOLPE” value (rate 500, 20 DAA) was 0 and the “damage to plant, POAAN” value (rate 500, 20 DAA) was 90. The “damage to plant, POLCO” value (rate 500, 20 DAA) was 20, the “damage to plant, SINAR” value (rate 500, 20 DAA) was 30 and the “damage to plant, STEME” value (rate 500, 20 DAA) was 0. For the same compound, the “damage to plant, VERPE” value (rate 500, 20 DAA) was 0.
